# Reference: the NIST ThermoML archive (doi:10.1021/je060479w)
# ± gives the expanded uncertainty stated by the source.
# Settings: for electrical conductivity / mass density / viscosity: 298.2 K, 101.33 kPa, Liquid; for electrical conductivity: Alternating current cell with electrodes; for mass density: Pycnometric method; for viscosity: rotary viscometer; for Normal melting temperature: Crystal; for Normal melting temperature / Glass transition temperature: DTA
Structure (SMILES),electrical conductivity [S/m],mass density [kg/m3],viscosity [mPa·s],Normal melting temperature [°C],Glass transition temperature [°C]
CC(=O)O.OCCN(CCO)CCO [triethanolammonium acetate],0.04958 ± 1e-05,1120 ± 26,342,-72.2 ± 0.5,-78.8 ± 5
O=CO.OCCN(CCO)CCO [triethanolamine formate],,,,67.6 ± 0.5,
NCCO.O=CO [2-hydroxyethylammonium formate],0.3291 ± 0.0001,1204 ± 26,118,-82.2 ± 0.5,-85.9 ± 5
CC(O)C(=O)[O-].[NH3+]CCO (stereo unspecified) [2-hydroxyethylammonium lactate],0.03775 ± 1e-05,1202 ± 26,1200,-58.5 ± 0.5,-63.7 ± 5
CC(=O)[O-].[NH3+]CCO [2-hydroxyethylammonium acetate],0.0692 ± 0.0001,1120 ± 26,640,-70.9 ± 0.5,-75.8 ± 5
CC(O)C(=O)O.OCCN(CCO)CCO [triethanolamine lactate],0.009 ± 0.001,1222 ± 26,455,-54.8 ± 0.5,-59.4 ± 5
